How the values were obtained:
[1] = xn = mol fraction of the nth substance listed; conditions: 101.3 kPa, Liquid, Sing-around technique in a fixed-path interferometer
[2] = refractive index (Na D-line) (dimensionless); xn = mol fraction of the nth substance listed; conditions: 101.3 kPa, Liquid, Standard Abbe refractometry

CC(Cl)(Cl)Cl [1,1,1-trichloroethane] + C[N+](=O)[O-]
Conditions	refractive index, 298.15 K	refractive index, 308.15 K	refractive index, 318.15 K	speed of sound, 298.15 K [m/s]	speed of sound, 308.15 K [m/s]	speed of sound, 318.15 K [m/s]
[1], x1 = 0.0921	–	–	–	1258.6	1219.9	1181.4
[1], x1 = 0.1727	–	–	–	1211.5	1173.7	1136
[1], x1 = 0.2614	–	–	–	1166.3	1129.1	1092.1
[1], x1 = 0.3951	–	–	–	1109.8	1073.5	1037.3
[1], x1 = 0.4862	–	–	–	1079.3	1043.4	1007.6
[1], x1 = 0.5904	–	–	–	1048.7	1013.2	977.89
[1], x1 = 0.7066	–	–	–	1019.3	984.72	949.76
[1], x1 = 0.8358	–	–	–	992.76	957.84	923.21
[1], x1 = 0.9012	–	–	–	980.43	945.74	911.39
[1], x1 = 1	–	–	–	962.94	928.68	894.71
[2], x1 = 0.0921	1.38777	1.38231	1.37702	–	–	–
[2], x1 = 0.1727	1.39427	1.38809	1.38239	–	–	–
[2], x1 = 0.2614	1.4006	1.39442	1.3887	–	–	–
[2], x1 = 0.3951	1.40894	1.40268	1.39695	–	–	–
[2], x1 = 0.4862	1.41396	1.40768	1.40208	–	–	–
[2], x1 = 0.5904	1.41903	1.41302	1.40727	–	–	–
[2], x1 = 0.7066	1.42412	1.41834	1.41249	–	–	–
[2], x1 = 0.8358	1.42923	1.42338	1.41753	–	–	–
[2], x1 = 0.9012	1.43156	1.42575	1.41987	–	–	–
[2], x1 = 1	1.43492	1.42908	1.42311	–	–	–

ClC(Cl)C(Cl)Cl [1,1,2,2-tetrachloroethane] + C[N+](=O)[O-]
Conditions	refractive index, 298.15 K	refractive index, 308.15 K	refractive index, 318.15 K	speed of sound, 298.15 K [m/s]	speed of sound, 308.15 K [m/s]	speed of sound, 318.15 K [m/s]
[1], x1 = 0.0711	–	–	–	1293.1	1254.8	1216.6
[1], x1 = 0.1888	–	–	–	1257.7	1220.8	1184.5
[1], x1 = 0.2563	–	–	–	1241.8	1205.8	1170
[1], x1 = 0.3464	–	–	–	1224.1	1189.1	1154.2
[1], x1 = 0.4341	–	–	–	1209.8	1175.4	1141.1
[1], x1 = 0.5431	–	–	–	1194.8	1161.1	1127.6
[1], x1 = 0.6654	–	–	–	1180.7	1147.6	1114.7
[1], x1 = 0.8211	–	–	–	1165.3	1133	1100.8
[1], x1 = 0.9285	–	–	–	1156.2	1124.2	1092.3
[1], x1 = 1	–	–	–	1150.6	1118.7	1087
[2], x1 = 0.0711	1.39391	1.3893	1.38479	–	–	–
[2], x1 = 0.1888	1.41442	1.4099	1.40582	–	–	–
[2], x1 = 0.2563	1.42485	1.42025	1.4162	–	–	–
[2], x1 = 0.3464	1.43683	1.43222	1.42805	–	–	–
[2], x1 = 0.4341	1.44721	1.4425	1.43807	–	–	–
[2], x1 = 0.5431	1.45848	1.45366	1.44909	–	–	–
[2], x1 = 0.6654	1.46937	1.46448	1.4596	–	–	–
[2], x1 = 0.8211	1.48094	1.47589	1.47087	–	–	–
[2], x1 = 0.9285	1.48772	1.48262	1.47752	–	–	–
[2], x1 = 1	1.49174	1.48654	1.48137	–	–	–

ClCCCl [1,2-dichloroethane] + C[N+](=O)[O-]
x1 = 1
Conditions	refractive index, 298.15 K	refractive index, 308.15 K	refractive index, 318.15 K	speed of sound, 298.15 K [m/s]	speed of sound, 308.15 K [m/s]	speed of sound, 318.15 K [m/s]
[1]	–	–	–	1194.4	1156.1	1117.8
[2]	1.44206	1.43661	1.43109	–	–	–

ClCCCCl [1,3-dichloropropane] + C[N+](=O)[O-]
Conditions	refractive index, 298.15 K	refractive index, 308.15 K	refractive index, 318.15 K	speed of sound, 298.15 K [m/s]	speed of sound, 308.15 K [m/s]	speed of sound, 318.15 K [m/s]
[1], x1 = 0.0878	–	–	–	1303	1264	1225
[1], x1 = 0.1939	–	–	–	1285.9	1247.3	1208.9
[1], x1 = 0.2938	–	–	–	1273.6	1235.4	1197.3
[1], x1 = 0.3998	–	–	–	1263.5	1225.6	1187.8
[1], x1 = 0.5028	–	–	–	1255.9	1218.2	1180.7
[1], x1 = 0.6154	–	–	–	1249.4	1212	1174.8
[1], x1 = 0.7207	–	–	–	1244.7	1207.5	1170.5
[1], x1 = 0.8326	–	–	–	1240.8	1203.8	1167
[1], x1 = 0.9404	–	–	–	1237.9	1201	1164.4
[1], x1 = 1	–	–	–	1236.5	1199.7	1163.2
[2], x1 = 0.0878	1.38808	1.38325	1.37861	–	–	–
[2], x1 = 0.1939	1.39757	1.39278	1.38807	–	–	–
[2], x1 = 0.2938	1.40567	1.40095	1.39632	–	–	–
[2], x1 = 0.3998	1.41335	1.40869	1.40422	–	–	–
[2], x1 = 0.5028	1.42017	1.41551	1.41092	–	–	–
[2], x1 = 0.6154	1.42699	1.42236	1.41782	–	–	–
[2], x1 = 0.7207	1.43278	1.42826	1.4234	–	–	–
[2], x1 = 0.8326	1.43844	1.43358	1.42879	–	–	–
[2], x1 = 0.9404	1.44348	1.43846	1.43349	–	–	–
[2], x1 = 1	1.44617	1.44123	1.43614	–	–	–

ClCCCCCl [1,4-dichlorobutane] + C[N+](=O)[O-]
Conditions	refractive index, 298.15 K	refractive index, 308.15 K	refractive index, 318.15 K	speed of sound, 298.15 K [m/s]	speed of sound, 308.15 K [m/s]	speed of sound, 318.15 K [m/s]
[1], x1 = 0.0825	–	–	–	1308.1	1269.3	1230.6
[1], x1 = 0.1759	–	–	–	1298.3	1260	1221.8
[1], x1 = 0.2825	–	–	–	1291.3	1253.5	1215.8
[1], x1 = 0.3815	–	–	–	1287.2	1249.9	1212.7
[1], x1 = 0.4815	–	–	–	1285	1248	1211.2
[1], x1 = 0.5911	–	–	–	1284	1247.3	1210.8
[1], x1 = 0.6898	–	–	–	1283.9	1247.5	1211.3
[1], x1 = 0.8208	–	–	–	1284.6	1248.6	1212.8
[1], x1 = 0.9262	–	–	–	1285.7	1249.9	1214.4
[1], x1 = 1	–	–	–	1286.6	1251	1215.7
[2], x1 = 0.0825	1.38965	1.38514	1.38078	–	–	–
[2], x1 = 0.1759	1.39985	1.39614	1.39174	–	–	–
[2], x1 = 0.2825	1.40987	1.40646	1.40219	–	–	–
[2], x1 = 0.3815	1.41799	1.41451	1.41005	–	–	–
[2], x1 = 0.4815	1.42515	1.42129	1.41679	–	–	–
[2], x1 = 0.5911	1.43204	1.4279	1.42357	–	–	–
[2], x1 = 0.6898	1.43765	1.43335	1.42901	–	–	–
[2], x1 = 0.8208	1.4443	1.43965	1.43512	–	–	–
[2], x1 = 0.9262	1.44906	1.44436	1.43974	–	–	–
[2], x1 = 1	1.45224	1.44756	1.44279	–	–	–

CCCCCl [1-chlorobutane] + C[N+](=O)[O-]
x1 = 1
Conditions	refractive index, 298.15 K	refractive index, 308.15 K	refractive index, 318.15 K	speed of sound, 298.15 K [m/s]	speed of sound, 308.15 K [m/s]	speed of sound, 318.15 K [m/s]
[1]	–	–	–	1119	1078	1037.3
[2]	1.39953	1.39413	1.38851	–	–	–

CCCCCCl [1-chloropentane] + C[N+](=O)[O-]
Conditions	refractive index, 298.15 K	refractive index, 308.15 K	refractive index, 318.15 K	speed of sound, 298.15 K [m/s]	speed of sound, 308.15 K [m/s]	speed of sound, 318.15 K [m/s]
[1], x1 = 0.1043	–	–	–	1276	1237	1197.9
[1], x1 = 0.1721	–	–	–	1253.5	1214.4	1175.3
[1], x1 = 0.2575	–	–	–	1231.2	1192.3	1153.4
[1], x1 = 0.3466	–	–	–	1213.7	1174.8	1135.8
[1], x1 = 0.4525	–	–	–	1198.2	1159.2	1120.1
[1], x1 = 0.5435	–	–	–	1188.6	1149.2	1110.1
[1], x1 = 0.6864	–	–	–	1177.1	1137.8	1098.5
[1], x1 = 0.8325	–	–	–	1169.4	1130.1	1090.8
[1], x1 = 0.8859	–	–	–	1167.6	1128.1	1088.9
[1], x1 = 1	–	–	–	1164.2	1124.9	1085.8
[2], x1 = 0.1044	1.38453	1.37934	1.37439	–	–	–
[2], x1 = 0.1721	1.38722	1.3821	1.377	–	–	–
[2], x1 = 0.2575	1.39056	1.38539	1.38037	–	–	–
[2], x1 = 0.3466	1.39367	1.38858	1.38354	–	–	–
[2], x1 = 0.4525	1.39687	1.39181	1.38674	–	–	–
[2], x1 = 0.5435	1.39934	1.39422	1.38916	–	–	–
[2], x1 = 0.6864	1.40308	1.39792	1.39268	–	–	–
[2], x1 = 0.8325	1.40646	1.4012	1.396	–	–	–
[2], x1 = 0.8859	1.4076	1.40244	1.3972	–	–	–
[2], x1 = 1	1.41015	1.40501	1.39984	–	–	–

C[N+](=O)[O-] [nitromethane] + CC(Cl)(Cl)Cl
x2 = 0
Conditions	refractive index, 298.15 K	refractive index, 308.15 K	refractive index, 318.15 K	speed of sound, 298.15 K [m/s]	speed of sound, 308.15 K [m/s]	speed of sound, 318.15 K [m/s]
[1]	–	–	–	1321.6	1281.9	1242.5
[2]	1.37949	1.37473	1.36995	–	–	–

Source: the NIST ThermoML archive (doi:10.1016/j.fluid.2014.10.004)
